Data as given in patent publication US8822517B2, “Arylosulfonamides for the treatment of CNS diseases” (Adamed SP. Z O.O., priority 2010, dated 2014).
Read-outs that look alike come from different tables or passages of the source.

Legend:
[1] = biological target: T1, serotoninergic receptor 5-HT2C (Homo sapiens, UniProt P28335); test: Binding assay 5-HT2C (h), [3H]mesulergine, HEK-293 cells; conditions: read-out: 5-HT2C [%]
T1 construct: expressed in transfected cells; host or cells: HEK-293 cells
T1 sequence (P28335 33-458): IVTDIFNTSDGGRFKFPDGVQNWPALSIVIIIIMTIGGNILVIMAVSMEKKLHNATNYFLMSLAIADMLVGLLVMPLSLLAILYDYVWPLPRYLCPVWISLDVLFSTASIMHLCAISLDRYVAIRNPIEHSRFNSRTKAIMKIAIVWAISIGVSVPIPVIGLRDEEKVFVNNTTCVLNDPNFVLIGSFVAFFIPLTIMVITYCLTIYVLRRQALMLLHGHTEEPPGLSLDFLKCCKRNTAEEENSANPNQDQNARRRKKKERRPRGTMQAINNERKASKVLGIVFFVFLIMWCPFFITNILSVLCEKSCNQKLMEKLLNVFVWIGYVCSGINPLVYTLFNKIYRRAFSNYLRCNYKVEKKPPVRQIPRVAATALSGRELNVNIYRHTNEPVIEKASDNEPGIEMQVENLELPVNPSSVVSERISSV
Summary of the method: (§1)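 Tested at 1×10^−6 M. Specific binding: total minus binding remaining with excess cold ligand. Detection: scintillation counting.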

[2] = biological target: T2, serotoninergic 5-HT1A receptor (Homo sapiens, UniProt P08908); test: Cellular functional assay, serotoninergic 5-HT1A receptor (agonism/antagonism); assay type: cell-based
T2 sequence (P08908 1-422): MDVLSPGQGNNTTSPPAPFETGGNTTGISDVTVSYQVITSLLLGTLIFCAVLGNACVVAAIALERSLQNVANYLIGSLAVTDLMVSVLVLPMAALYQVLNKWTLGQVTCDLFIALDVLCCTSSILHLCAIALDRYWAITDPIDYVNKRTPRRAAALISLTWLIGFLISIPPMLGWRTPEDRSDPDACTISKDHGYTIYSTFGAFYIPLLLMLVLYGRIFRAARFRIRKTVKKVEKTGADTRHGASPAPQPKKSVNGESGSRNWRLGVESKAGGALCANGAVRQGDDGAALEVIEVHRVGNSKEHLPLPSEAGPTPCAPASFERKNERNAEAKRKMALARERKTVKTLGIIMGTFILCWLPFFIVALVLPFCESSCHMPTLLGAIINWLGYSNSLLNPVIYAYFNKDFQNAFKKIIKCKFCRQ
Protocol: (§2) The compounds were tested at the concentration of 1×10^−6M.
(§3) In the Tables ag refers to agonism, and antag to antagonism).

[3] = biological target: T3, serotoninergic 5-HT6 receptor (Homo sapiens, UniProt P50406); test: Cellular functional assay, serotoninergic 5-HT6 receptor (agonism/antagonism); assay type: cell-based; conditions: for activation at 1 µM: read-out: 5-HT6-ag [%]; for inhibition at 1 µM: read-out: 5-HT6-antag. [%]
Protocol: as §2, §3

[4] = biological target: T4, adrenergic α2C receptor (Homo sapiens, UniProt P18825); test: Cellular functional assay, adrenergic α2C receptor (agonism/antagonism); assay type: cell-based; conditions: for activation at 1 µM: read-out: α2C −ag [%]; for inhibition at 1 µM: read-out: α2C −antag. [%]
T4 sequence (P18825 1-462): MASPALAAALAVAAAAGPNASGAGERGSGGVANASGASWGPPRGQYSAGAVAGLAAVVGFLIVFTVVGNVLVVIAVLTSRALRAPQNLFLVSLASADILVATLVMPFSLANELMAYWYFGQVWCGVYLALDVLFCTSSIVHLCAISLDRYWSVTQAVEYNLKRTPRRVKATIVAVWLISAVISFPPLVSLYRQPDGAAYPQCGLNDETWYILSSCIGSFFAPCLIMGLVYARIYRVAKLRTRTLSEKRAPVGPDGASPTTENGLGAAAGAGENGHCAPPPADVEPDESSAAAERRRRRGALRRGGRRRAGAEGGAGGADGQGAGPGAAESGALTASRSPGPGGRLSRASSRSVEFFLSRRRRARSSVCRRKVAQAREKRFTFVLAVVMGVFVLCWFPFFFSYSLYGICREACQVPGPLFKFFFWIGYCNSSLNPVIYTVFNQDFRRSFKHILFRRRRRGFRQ
Protocol: as §2, §3

[5] = biological target: histaminergic H1 receptor (Homo sapiens, UniProt P35367); test: Cellular functional assay, histaminergic H1 receptor (agonism/antagonism); assay type: cell-based; conditions: for activation at 1 µM: read-out: H1 -ag [%]; for inhibition at 1 µM: read-out: H1 -antag. [%]
Protocol: as §2, §3

[6] = test system: mice; test: d-Amphetamine-induced locomotor hyperactivity in mice; conditions: for MED*: minimum effective dose, d-amphetamine-induced locomotor hyperactivity, i.p.
Protocol: All the experiments were performed by two observers unaware of the treatment applied between 9:00 and 14:00 on separate groups of animals. All animals were used only once and were killed immediately after the experiment.
The locomotor activity was recorded with an Opto M3 multi-channel activity monitor (MultiDevice Software v. 1.3, Columbus Instruments). The mice were individually placed in plastic cages (22×12×13 cm) for 30 minutes habituation period, and then the crossings of each channel (ambulation) were counted during 1 h with data recording every 5 minutes. The cages were cleaned up with 70% ethanol after each mouse. Drugs were administered to 10 mice per treatment group. d-Amphetamine was administered 30 minutes before the test.
An injection volume of 10 ml/kg (mice) or 2 ml/kg (rats) was used throughout and all compounds were administered intraperitoneally (i.p.), except d-amphetamine that was given subcutaneously (s.c.).
All the data are expressed as the mean±SEM. The statistical significance of effects was evaluated using separate one-way analysis of variance (ANOVA) with comparison between individual groups by Dunnett's test (when only one drug was given) or by the Tukey's test when two drugs were used; p<0.05, p<0.01 and p<0.001 were considered statistically significant. ED50 values were calculated using Graph Pad Prism 5 Software.

[7] = biological target: dopaminergic D3 receptor (Homo sapiens, UniProt P35462); test: Binding assay D3 (h), [3H]methyl-spiperone, CHO cells; design: expressed in transfected cells; host or cells: CHO cells; conditions: read-out: D3 [%]
Summary of the method: as §1

[8] = biological target: T3, serotoninergic 5-HT6 receptor; test: Binding assay 5-HT6 (h), [3H]LSD, CHO cells; design: expressed in transfected cells; host or cells: CHO cells; conditions: read-out: 5-HT6
Summary of the method: as §1

[9] = biological target: T2, serotoninergic 5-HT1A receptor; test: Binding assay 5-HT1A (h), [3H]8-OH-DPAT, HEK-293 cells; design: expressed in transfected cells; host or cells: HEK-293 cells; conditions: read-out: 5-HT1A
Summary of the method: as §1

[10] = biological target: hERG potassium channels (Homo sapiens, UniProt Q12809); test: hERG potassium channel block, electrophysiology (IonWorks Quattro), CHO cells
Protocol: Ability to block hERG potassium channels was determined using the electrophysiological method and cloned hERG potassium channels (KCNH2 gene, expressed in CHO cells) as biological material. The effects were evaluated using IonWorks™ Quattro system (MDS-AT).
hERG current was elicited using a pulse pattern with fixed amplitudes (conditioning prepulse: −80 mV for 25 ms; test pulse: +40 mV for 80 ms) from a holding potential of 0 mV. hERG current was measured as a difference between the peak current at 1 ms after the test step to +40 mV and the steady-state current at the end of the step to +40 mV.
Data acquisition and analyses was performed using the IonWorks Quattro™ system operation software (version 2.0.2; Molecular Devices Corporation, Union City, Calif.). Data were corrected for leak current.

[11] = CHO; read-out: 5-HT1A-antag. [%]
[12] = agonist effect, percent of control specific agonist response (100 nM 8-OH-DPAT for control); 1×10^−6 M; 5-HT1A (h), CHO cells; read-out: 5-HT1A-ag [%]
[13] = agonist effect, percent of control specific agonist response, compounds tested at 1×10^−6M
[14] = % block of hERG current, cloned hERG channels in CHO cells, IonWorks Quattro

Sequence of hERG potassium channels (Q12809 whole entry): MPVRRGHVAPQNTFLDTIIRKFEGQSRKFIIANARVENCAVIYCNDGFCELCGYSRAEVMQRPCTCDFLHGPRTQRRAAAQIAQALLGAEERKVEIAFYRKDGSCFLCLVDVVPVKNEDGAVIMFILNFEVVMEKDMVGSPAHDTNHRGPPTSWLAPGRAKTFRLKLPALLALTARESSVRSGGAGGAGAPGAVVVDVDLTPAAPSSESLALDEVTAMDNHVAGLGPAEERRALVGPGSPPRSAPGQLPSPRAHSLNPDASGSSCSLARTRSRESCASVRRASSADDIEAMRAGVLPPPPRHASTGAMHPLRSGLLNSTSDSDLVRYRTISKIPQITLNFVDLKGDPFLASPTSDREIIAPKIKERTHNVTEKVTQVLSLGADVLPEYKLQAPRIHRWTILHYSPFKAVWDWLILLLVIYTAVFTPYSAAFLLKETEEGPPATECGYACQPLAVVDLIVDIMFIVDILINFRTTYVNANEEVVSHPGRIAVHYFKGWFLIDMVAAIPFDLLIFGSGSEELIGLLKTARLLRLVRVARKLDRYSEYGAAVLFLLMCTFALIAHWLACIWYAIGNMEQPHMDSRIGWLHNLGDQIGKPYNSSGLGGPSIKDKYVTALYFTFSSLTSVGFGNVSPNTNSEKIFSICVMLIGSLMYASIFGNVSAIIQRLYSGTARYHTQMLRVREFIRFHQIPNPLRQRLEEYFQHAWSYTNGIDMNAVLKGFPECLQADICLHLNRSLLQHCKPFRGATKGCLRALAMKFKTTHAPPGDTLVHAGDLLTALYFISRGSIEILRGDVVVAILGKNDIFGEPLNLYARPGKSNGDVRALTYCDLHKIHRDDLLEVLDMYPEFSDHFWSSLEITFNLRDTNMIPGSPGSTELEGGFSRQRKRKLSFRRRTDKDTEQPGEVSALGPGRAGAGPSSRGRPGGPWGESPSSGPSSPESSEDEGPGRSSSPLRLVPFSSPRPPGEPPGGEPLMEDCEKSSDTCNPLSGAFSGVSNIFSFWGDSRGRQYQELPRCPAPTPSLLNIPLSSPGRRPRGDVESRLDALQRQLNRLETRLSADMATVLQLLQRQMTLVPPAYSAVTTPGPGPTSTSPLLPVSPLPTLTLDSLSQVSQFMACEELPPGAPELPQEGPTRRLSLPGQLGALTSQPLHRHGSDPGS
Sequence of dopaminergic D3 receptor (P35462 whole entry): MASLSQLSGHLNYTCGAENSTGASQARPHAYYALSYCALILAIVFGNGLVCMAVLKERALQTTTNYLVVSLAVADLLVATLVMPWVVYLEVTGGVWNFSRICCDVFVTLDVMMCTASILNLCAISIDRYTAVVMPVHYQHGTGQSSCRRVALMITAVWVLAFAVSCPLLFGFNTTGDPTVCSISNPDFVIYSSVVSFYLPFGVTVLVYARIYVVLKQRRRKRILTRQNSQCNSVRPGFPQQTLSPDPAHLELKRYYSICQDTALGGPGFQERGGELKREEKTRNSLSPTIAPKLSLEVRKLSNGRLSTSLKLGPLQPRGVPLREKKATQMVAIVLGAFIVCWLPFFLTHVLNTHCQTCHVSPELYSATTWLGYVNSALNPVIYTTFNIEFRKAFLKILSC
T3 sequence (P50406 whole entry): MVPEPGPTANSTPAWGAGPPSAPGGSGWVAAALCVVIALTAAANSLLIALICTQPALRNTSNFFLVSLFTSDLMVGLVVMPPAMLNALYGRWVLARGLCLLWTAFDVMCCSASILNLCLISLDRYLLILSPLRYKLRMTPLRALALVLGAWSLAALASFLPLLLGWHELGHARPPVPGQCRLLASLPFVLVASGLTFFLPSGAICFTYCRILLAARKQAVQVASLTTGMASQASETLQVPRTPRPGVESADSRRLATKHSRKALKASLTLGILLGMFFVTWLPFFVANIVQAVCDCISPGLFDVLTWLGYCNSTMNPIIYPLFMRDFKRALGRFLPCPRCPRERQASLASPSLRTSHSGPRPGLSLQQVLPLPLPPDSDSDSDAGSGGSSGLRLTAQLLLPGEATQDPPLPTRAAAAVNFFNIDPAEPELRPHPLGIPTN
Sequence of histaminergic H1 receptor (P35367 whole entry): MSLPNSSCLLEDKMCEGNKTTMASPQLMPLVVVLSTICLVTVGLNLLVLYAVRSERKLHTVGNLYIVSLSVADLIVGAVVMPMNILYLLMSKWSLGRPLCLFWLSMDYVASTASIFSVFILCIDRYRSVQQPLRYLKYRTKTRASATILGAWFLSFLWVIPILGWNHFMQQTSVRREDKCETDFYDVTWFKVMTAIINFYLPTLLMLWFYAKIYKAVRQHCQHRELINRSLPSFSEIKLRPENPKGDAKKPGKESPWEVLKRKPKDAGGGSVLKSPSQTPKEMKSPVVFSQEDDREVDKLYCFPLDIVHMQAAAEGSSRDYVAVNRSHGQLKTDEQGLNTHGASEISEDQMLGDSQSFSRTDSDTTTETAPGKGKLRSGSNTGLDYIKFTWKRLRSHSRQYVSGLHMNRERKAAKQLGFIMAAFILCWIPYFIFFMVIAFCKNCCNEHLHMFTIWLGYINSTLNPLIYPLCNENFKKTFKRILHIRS

SMILES | inhibition at 1 µM [1] [%] | inhibition at 1 µM [3] [%] | inhibition at 1 µM [4] [%] | inhibition at 1 µM [5] [%] | MED* [6] [mg/kg] | inhibition at 1 µM [7] [%] | inhibition at 1 µM [8] [%] | inhibition at 1 µM [9] [%] | inhibition at 1 µM [2, 11] [%] | activation at 1 µM [2, 12] [%] | activation at 1 µM [3, 13] [%] | activation at 1 µM [4, 13] [%] | activation at 1 µM [5, 13] [%] | hERG [%] [10, 14] [%] | further results
O=S(=O)(NCCCCN1CCN(c2nsc3ccccc23)CC1)c1ccc2ccccc2c1 [Compound 2, N-(4-(4-(1,2-Benzothiazol-3-yl)piperazin-1-yl)butyl)naphthalene-2-sulphonamide] | 89 | 28 | 30 | 48 | 5 | 100 | 97 | 99 | – | – | – | – | – | – | activation at 1 µM ([2]; CHO, read-out: 5-HT1A-ag [%]): 47%; inhibition at 1 µM ([2]; CHO, read-out: 5-HT1A-antag. [%]): 18%; activation at 1 µM [3]: 2%; activation at 1 µM [4]: -8%; activation at 1 µM [5]: -1%; hERG [%] [10]: 14%
Cc1cccc(S(=O)(=O)NCCCN2CCN(c3nsc4ccccc34)CC2)c1 [Compound 7, N-(3-(4-(1,2-Benzothiazol-3-yl)piperazin-1-yl)propyl)-3-methylbenzenesulphonamide] | 89 | 65 | 2 | 70 | 2 | 97 | 98 | 99 | 51 | 59 | 1 | -6 | 1 | 14 | –
O=S(=O)(NCCCCN1CCC(c2noc3cc(F)ccc23)CC1)c1ccc2ccccc2c1 [Compound 18, N-[4-[4-(6-Fluoro-1,2-benzoxazol-3-yl)piperidin-1-yl]butyl]naphthalene-2-sulphonamide] | 73 | 87 | 28 | – | 2.5 | 98 | 100 | 81 | – | – | 1 | -10 | – | 30 | –
Cc1cccc(S(=O)(=O)NCCCN2CCC(c3noc4cc(F)ccc34)CC2)c1 [Compound 22, N-[3-[4-(6-Fluoro-1,2-benzoxazol-3-yl)piperidin-1-yl]propyl]-3-methylbenzenesulphonamide] | 73 | 82 | 12 | – | 2.5 | 96 | 99 | 75 | 99 | 0 | 1 | -8 | – | 52 | activity in d-amphetamine induced hyperlocomotion [6]: active
O=S(=O)(NCCCCN1CCN(c2nsc3ccccc23)CC1)c1ccc2cc(Cl)ccc2c1 [Compound 61, N-[4-[4-(1,2-Benzothiazol-3-yl)piperazin-1-yl]butyl]-6-chloro-naphthalene-2-sulphonamide] | 95 | 72 | 18 | 76 | – | 96 | 96 | 94 | 20 | 75 | -2 | 1 | 1 | 12 | –
O=S(=O)(NCCCCN1CCC(c2noc3cc(F)ccc23)CC1)c1ccc2cc(Cl)ccc2c1 [Compound 97, 6-Chloro-N-[4-[4-(6-fluoro-1,2-benzoxazol-3-yl)piperidin-1-yl]butyl]naphthalene-2-sulphonamide] | 89 | 95 | 36 | 57 | 2.5 | 100 | 98 | 75 | 38 | 13 | -2 | -4 | 3 | – | –
